The target of experiment [1] is Hsp90 Nuclear Binding Domain (NBD) (Candida albicans (strain SC5314 / ATCC MYA-2876) (Yeast), UniProt P46598). Briefly: Surface Plasmon Resonance (SPR) binding, C. albicans Hsp90 NBD. Particulars: biotinylated Hsp90 NBD on streptavidin chip, 25° C., 1:1 binding model. How it is done:
(§1) Surface Plasmon Resonance (SPR) Experiments. SPR experiments were performed on a Biacore S200 instrument at 25° C. Biotinylated Hsp90 Nuclear Binding Domain (NBD) was diluted to 40 μg/mL and immobilized on a streptavidin chip (Sensor Chip SA, GE Healthcare) at a density of 2000-2500 response units (RU) on the biosensor surface.
(§2) Recombinant Hsp90 NBDs were expressed and purified as previously described (Whitesell et al., Nat Commun 10, 402 (2019)) with the following modification; Hsp90 NBD expression constructs were modified to encode a C-terminal AviTag for site-specific on-column biotinylation with a BirA biotin-ligase kit (Avidity LLC; BirA-500). Stock protein solutions in 50% glycerol were stored at −20° C. until dilution into relevant buffers. Binding experiments were done in HBS-P (0.01 M HEPES, pH 7.4, 0.15 M NaCl, 0.005% v/v surfactant P20, GE Healthcare) with 2% DMSO at flow rate of 40 μL/min. Test compounds (dilution series) were injected with a 60 s association time and 600 s dissociation time. Resulting sensorgrams were analyzed with a fit to a 1:1 binding model, using BIA evaluation software.

Experiment [2] deals with Hsp90 Nuclear Binding Domain (NBD) (Aspergillus fumigatus, UniProt P40292). Kind of experiment: Surface Plasmon Resonance (SPR) binding, A. fumigatus Hsp90 NBD. Particulars: biotinylated Hsp90 NBD on streptavidin chip, 25° C., 1:1 binding model; NB undefined. How it is done: as §1, §2
Experiment [3] concerns CaCl2. Briefly: Antifungal sensitivity testing (broth microdilution MIC). The experiment is classed as cell-based. Particulars: Table 4; 96-well broth microdilution. As for the experimental part:
Antifungal Sensitivity Testing. Minimum inhibitory concentrations (MICs) were determined in flat bottom, 96-well plate format using a modified broth microdilution protocol as previously described (Singh et al., PLoS Pathog. 5, e1000532 (2009); LaFayette et al., PLoS Pathog. 6, 79-80 (2010)). Compounds were formulated in dimethyl sulfoxide (DMSO, Sigma-Aldrich Co.); fluconazole was dissolved in sterile ddH2O. Each compound was tested in duplicate in at least two independent experiments. To test for fungicidal activity, cultures from MIC plates were spotted on YPD agar plates using a spotter (Frogger, V&P Scientific, Inc.). Plates were photographed after 24 h of incubation at 30° C.

In brackets after ≈: the same amount, converted by molar mass.

Hsp90 Nuclear Binding Domain (NBD) (Aspergillus fumigatus, UniProt P40292), sequence (P40292 whole entry, looked up, the tested form may be a part): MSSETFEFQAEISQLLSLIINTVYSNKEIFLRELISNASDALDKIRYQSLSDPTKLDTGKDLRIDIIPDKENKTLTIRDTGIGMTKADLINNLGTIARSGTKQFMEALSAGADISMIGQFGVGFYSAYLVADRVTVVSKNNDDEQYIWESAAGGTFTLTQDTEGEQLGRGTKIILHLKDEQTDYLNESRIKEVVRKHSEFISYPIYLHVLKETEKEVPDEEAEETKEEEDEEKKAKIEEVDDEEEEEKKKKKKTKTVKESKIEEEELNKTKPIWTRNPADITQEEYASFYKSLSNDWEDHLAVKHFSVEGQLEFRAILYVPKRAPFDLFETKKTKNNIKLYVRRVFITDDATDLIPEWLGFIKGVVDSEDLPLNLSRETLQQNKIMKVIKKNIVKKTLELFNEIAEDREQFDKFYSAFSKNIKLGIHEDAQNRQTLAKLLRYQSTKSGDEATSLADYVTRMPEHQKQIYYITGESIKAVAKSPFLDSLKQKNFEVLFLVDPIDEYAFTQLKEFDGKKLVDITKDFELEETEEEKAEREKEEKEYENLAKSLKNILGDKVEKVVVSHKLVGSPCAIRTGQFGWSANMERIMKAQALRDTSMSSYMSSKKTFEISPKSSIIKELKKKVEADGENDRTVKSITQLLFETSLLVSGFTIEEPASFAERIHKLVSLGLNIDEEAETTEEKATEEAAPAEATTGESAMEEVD
Hsp90 Nuclear Binding Domain (NBD) (Candida albicans (strain SC5314 / ATCC MYA-2876) (Yeast), UniProt P46598), sequence (P46598 1-218 limits assumed): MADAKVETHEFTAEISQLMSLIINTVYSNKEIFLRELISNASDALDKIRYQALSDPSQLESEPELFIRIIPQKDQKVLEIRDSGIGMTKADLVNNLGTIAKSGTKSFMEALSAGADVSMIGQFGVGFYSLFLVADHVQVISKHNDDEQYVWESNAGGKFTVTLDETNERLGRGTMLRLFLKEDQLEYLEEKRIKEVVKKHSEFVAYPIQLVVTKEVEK

On to `Nc1nc2sc(C(=O)NC3CCN(C[C@](O)(Cn4cncn4)c4ccc(F)cc4F)CC3)cc2n(-c2ccc3c(c2)N(c2ccccc2)CCO3)c1=O` [Compound I-7, (S)-3-amino-N-(1-(2-(2,4-difluorophenyl)-2-hydroxy-3-(1H-1,2,4-triazol-1-yl)propyl)piperidin-4-yl)-2-oxo-1-(4-phenyl-3,4-dihydro-2H-benzo[b][1,4]oxazin-6-yl)-1,2-dihydrothieno[2,3-b]pyrazine-6-carboxamide], for which the Kd in experiment [1] amounted to 22.8 nM; in experiment [2], 76.4 nM. The same compound registered an MIC50 in experiment [3] of 0.75 µM (≈ 0.555 µg/mL).
Compound `Nc1nc2sc(C(=O)Nc3ccc(N4CCN(CC(O)(Cn5cncn5)c5ccc(F)cc5F)CC4)cc3)cc2n(-c2ccc3c(c2)N(c2ccccc2)CCO3)c1=O` (stereo not shown) [Compound I-8, 3-amino-N-(4-(4-(2-(2,4-difluorophenyl)-2-hydroxy-3-(1H-1,2,4-triazol-1-yl)propyl)piperazin-1-yl)phenyl)-2-oxo-1-(4-phenyl-3,4-dihydro-2H-benzo[b][1,4]oxazin-6-yl)-1,2-dihydrothieno[2,3-b]pyrazine-6-carboxamide] yielded an MIC50 in experiment [3] of 0.75 µM (≈ 0.613 µg/mL).
As to `Nc1nc2sc(C(=O)Nc3ccc(CN4CCN(CC(O)(Cn5cncn5)c5ccc(F)cc5F)CC4)cc3)cc2n(-c2ccc3c(c2)N(c2ccccc2)CCO3)c1=O` (stereo not shown) [Compound I-9, 3-amino-N-(4-((4-(2-(2,4-difluorophenyl)-2-hydroxy-3-(1H-1,2,4-triazol-1-yl)propyl)piperazin-1-yl)methyl)phenyl)-2-oxo-1-(4-phenyl-3,4-dihydro-2H-benzo[b][1,4]oxazin-6-yl)-1,2-dihydrothieno[2,3-b]pyrazine-6-carboxamide], the dissociation constant Kd turned out to be 136 nM in experiment [1] and 3870 nM in experiment [2]. In experiment [3], the MIC50 stood at 10 µM (≈ 8.31 µg/mL).
Consider `Nc1nc2sc(C(=O)NC3CCN(CC(O)(Cn4cncn4)c4ccc(F)cc4F)CC3)cc2n(-c2ccc3ccn(-c4ccccc4)c3c2)c1=O` (stereo not shown) [Compound I-13, 3-amino-N-(1-(2-(2,4-difluorophenyl)-2-hydroxy-3-(1H-1,2,4-triazol-1-yl)propyl)piperidin-4-yl)-2-oxo-1-(1-phenyl-1H-indol-6-yl)-1,2-dihydrothieno[2,3-b]pyrazine-6-carboxamide], for which the results for the dissociation constant Kd in experiment [1] and in experiment [2] were 50.4 nM and 75.1 nM, respectively. For the same compound, the MIC50 in experiment [3] was 0.37 µM (≈ 0.267 µg/mL).
For `Nc1nc2sc(C(=O)N[C@H]3CCN(CC(O)(Cn4cncn4)c4ccc(F)cc4F)C3)cc2n(-c2ccc3c(c2)N(c2ccccc2)CCO3)c1=O` (stereo partly drawn) [Compound I-14, 3-amino-N-((3S)-1-(2-(2,4-difluorophenyl)-2-hydroxy-3-(1H-1,2,4-triazol-1-yl)propyl)pyrrolidin-3-yl)-2-oxo-1-(4-phenyl-3,4-dihydro-2H-benzo[b][1,4]oxazin-6-yl)-1,2-dihydrothieno[2,3-b]pyrazine-6-carboxamide], the figures for the Kd in experiment [1] and in experiment [2] were 23.4 nM and 146 nM, respectively. For the same compound, the MIC50 in experiment [3] was 25 µM (≈ 18.1 µg/mL).
`Nc1nc2sc(C(=O)NCCN3CCN(CC(O)(Cn4cncn4)c4ccc(F)cc4F)CC3)cc2n(-c2ccc3c(c2)N(c2ccccc2)CCO3)c1=O` (stereo not shown) [Compound I-15, 3-amino-N-(2-(4-(2-(2,4-difluorophenyl)-2-hydroxy-3-(1H-1,2,4-triazol-1-yl)propyl)piperazin-1-yl)ethyl)-2-oxo-1-(4-phenyl-3,4-dihydro-2H-benzo[b][1,4]oxazin-6-yl)-1,2-dihydrothieno[2,3-b]pyrazine-6-carboxamide]: the Kd was 30.4 nM in experiment [1] and 188 nM in experiment [2]. Further, the MIC50 in experiment [3] is 2.75 µM (≈ 2.11 µg/mL).
For `Nc1nc2sc(C(=O)NC3CCN(CC(O)(Cn4cncn4)c4ccc(F)cc4F)CC3)cc2n(-c2ccc3c(c2)N(c2ccccc2)CCC3)c1=O` (stereo not shown) [Compound I-16, 3-amino-N-(1-(2-(2,4-difluorophenyl)-2-hydroxy-3-(1H-1,2,4-triazol-1-yl)propyl)piperidin-4-yl)-2-oxo-1-(1-phenyl-1,2,3,4-tetrahydroquinolin-7-yl)-1,2-dihydrothieno[2,3-b]pyrazine-6-carboxamide] the same measures were 16 nM, 140 nM and 0.6 µM (≈ 0.443 µg/mL).
As to `Nc1nc2scc(C(=O)N[C@H]3CCN(CC(O)(Cn4cncn4)c4ccc(F)cc4F)C3)c2n(-c2ccc3c(c2)N(c2ccccc2)CCO3)c1=O` (stereo partly drawn) [Compound I-17, 3-amino-N-((3S)-1-(2-(2,4-difluorophenyl)-2-hydroxy-3-(1H-1,2,4-triazol-1-yl)propyl)pyrrolidin-3-yl)-2-oxo-1-(4-phenyl-3,4-dihydro-2H-benzo[b][1,4]oxazin-6-yl)-1,2-dihydrothieno[2,3-b]pyrazine-7-carboxamide], the equilibrium dissociation constant (Kd) amounted to 2670 nM in experiment [1] and 2700 nM in experiment [2]. The compound also displayed an MIC50 in experiment [3] of 45 µM (≈ 32.7 µg/mL).
The corresponding values for `Cc1ccc(-n2c(=O)c(N)nc3sc(C(=O)NC4CCN(C[C@](O)(Cn5cncn5)c5ccc(F)cc5F)CC4)cc32)cc1Oc1ccccc1` [Compound I-25, (S)-3-amino-N-(1-(2-(2,4-difluorophenyl)-2-hydroxy-3-(1H-1,2,4-triazol-1-yl)propyl)piperidin-4-yl)-1-(4-methyl-3-phenoxyphenyl)-2-oxo-1,2-dihydrothieno[2,3-b]pyrazine-6-carboxamide] are 171 nM, 299 nM and 0.5 µM (≈ 0.356 µg/mL).
Take `Nc1nc2sc(C(=O)NC3CCN(CCC(O)(Cn4cncn4)c4ccc(F)cc4F)CC3)cc2n(-c2ccc3c(c2)N(c2ccccc2)CCO3)c1=O` (stereo not shown) [Compound I-28, 3-amino-N-(1-(3-(2,4-difluorophenyl)-3-hydroxy-4-(1H-1,2,4-triazol-1-yl)butyl)piperidin-4-yl)-2-oxo-1-(4-phenyl-3,4-dihydro-2H-benzo[b][1,4]oxazin-6-yl)-1,2-dihydrothieno[2,3-b]pyrazine-6-carboxamide]: the Kd in experiment [1] amounted to 13.3 nM; in experiment [2] it was 159 nM. Further, the MIC50 in experiment [3] was found to be 6 µM (≈ 4.52 µg/mL).
For `Nc1nc2scc(C(=O)NC3CCN(C[C@](O)(Cn4cncn4)c4ccc(F)cc4F)CC3)c2n(-c2ccc3c(c2)N(c2ccccc2)CCO3)c1=O` [Compound I-35, (S)-3-amino-N-(1-(2-(2,4-difluorophenyl)-2-hydroxy-3-(1H-1,2,4-triazol-1-yl)propyl)piperidin-4-yl)-2-oxo-1-(4-phenyl-3,4-dihydro-2H-benzo[b][1,4]oxazin-6-yl)-1,2-dihydrothieno[2,3-b]pyrazine-7-carboxamide] the same measures were 1950 nM, 1840 nM and 25 µM (≈ 18.5 µg/mL).
Regarding `Nc1nc2sc(C(=O)Nc3ccc(COC4CCN(CC(O)(Cn5cncn5)c5ccc(F)cc5F)CC4)cc3)cc2n(-c2ccc3c(c2)N(c2ccccc2)CCO3)c1=O` (stereo not shown) [Compound I-46, 3-amino-N-(4-(((1-(2-(2,4-difluorophenyl)-2-hydroxy-3-(1H-1,2,4-triazol-1-yl)propyl)piperidin-4-yl)oxy)methyl)phenyl)-2-oxo-1-(4-phenyl-3,4-dihydro-2H-benzo[b][1,4]oxazin-6-yl)-1,2-dihydrothieno[2,3-b]pyrazine-6-carboxamide], the MIC50 in experiment [3] worked out at 0.85 µM (≈ 0.719 µg/mL).
`Nc1nc2sc(C(=O)NC3CCCN(CC(O)(Cn4cncn4)c4ccc(F)cc4F)CC3)cc2n(-c2ccc3c(c2)N(c2ccccc2)CCO3)c1=O` (stereo not shown) [Compound I-50, 3-amino-N-(1-(2-(2,4-difluorophenyl)-2-hydroxy-3-(1H-1,2,4-triazol-1-yl)propyl)azepan-4-yl)-2-oxo-1-(4-phenyl-3,4-dihydro-2H-benzo[b][1,4]oxazin-6-yl)-1,2-dihydrothieno[2,3-b]pyrazine-6-carboxamide] came in with a dissociation constant Kd in experiment [1] of 42.7 nM. Besides, the MIC50 in experiment [3] came to 3.25 µM (≈ 2.45 µg/mL).
For the compound `Nc1nc2sc(CNC3[C@@H]4CC[C@H]3CN(CC(O)(Cn3cncn3)c3ccc(F)cc3F)C4)cc2n(-c2ccc3c(c2)N(c2ccccc2)CCO3)c1=O` (stereo partly drawn) [Compound I-116, 3-amino-6-((((1R,5S)-3-(2-(2,4-difluorophenyl)-2-hydroxy-3-(1H-1,2,4-triazol-1-yl)propyl)-3-azabicyclo[3.2.1]octan-8-yl)amino)methyl)-1-(4-phenyl-3,4-dihydro-2H-benzo[b][1,4]oxazin-6-yl)thieno[2,3-b]pyrazin-2(1H)-one], binding in experiment [1] was put at a Kd of 1350 nM. Also, the MIC50 in experiment [3] was 3 µM (≈ 2.26 µg/mL).
As to `CN(Cc1cc2c(nc(N)c(=O)n2-c2ccc3c(c2)N(c2ccccc2)CCO3)s1)C1CCN(CC(O)(Cn2cncn2)c2ccc(F)cc2F)CC1` (stereo not shown) [Compound I-119, 3-amino-6-(((1-(2-(2,4-difluorophenyl)-2-hydroxy-3-(1H-1,2,4-triazol-1-yl)propyl)piperidin-4-yl)(methyl)amino)methyl)-1-(4-phenyl-3,4-dihydro-2H-benzo[b][1,4]oxazin-6-yl)thieno[2,3-b]pyrazin-2(1H)-one], the MIC50 in experiment [3] came to 6.5 µM (≈ 4.81 µg/mL).

Source of the values: US20240424113A1, “CONJUGATES COMPRISING ANTIFUNGALS AND HEAT SHOCK PROTEIN 90 (HSP90) INHIBITORS AND METHODS OF USE THEREOF” (Bright Angel Therapeutics Inc., priority 2021, published 2024).
